{
  "source": "patent US20070270432A1",
  "about": "“Novel Method” (priority 2002, published 2007)",
  "key": {"seizure threshold": {"system": "seizure threshold", "conditions": "rat MEST test, dose range 0.1-30 mg/kg; cited from earlier work"}, "rat 5-HT6 receptors": {"target": "rat 5-HT6 receptors (Rattus norvegicus, UniProt P31388)", "sequence (P31388 whole entry)": "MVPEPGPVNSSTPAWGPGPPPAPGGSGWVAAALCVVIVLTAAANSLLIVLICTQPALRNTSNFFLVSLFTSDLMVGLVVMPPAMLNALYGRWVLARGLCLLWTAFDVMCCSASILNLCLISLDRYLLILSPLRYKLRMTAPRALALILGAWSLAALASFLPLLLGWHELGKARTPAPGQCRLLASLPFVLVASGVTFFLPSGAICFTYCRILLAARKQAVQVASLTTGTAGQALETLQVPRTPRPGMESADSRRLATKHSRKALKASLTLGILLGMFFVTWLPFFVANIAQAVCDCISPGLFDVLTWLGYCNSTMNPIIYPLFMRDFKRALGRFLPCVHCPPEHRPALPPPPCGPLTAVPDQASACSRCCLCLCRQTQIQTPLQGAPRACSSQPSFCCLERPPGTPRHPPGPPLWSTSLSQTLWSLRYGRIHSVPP", "conditions": "cited from earlier work"}, "[1]": {"conditions": "in vivo; cited from earlier work"}, "[2]": {"system": "polysialylated neurons in layer II of the entorhinal and perirhinal cortex", "test": "NCAM PSA expression in medial temporal lobe after chronic administration", "assay_type": "in vivo, rat", "conditions": "20 mg/kg; for PSA immunopositive cell frequency: medial temporal lobe, 40 days by gavage", "experimental": "Experimentally naïve postnatal day 80 (at the time of NCAM-PSA assessment) male Wistar rats were employed in all studies. All animals were housed singly and maintained at 22±2° C. on a standard 12 h-light/dark cycle with food and water available ad libitum. Animals were introduced to the experimental holding rooms at least 3 days prior to the commencement of any study. The frequency of polysialylated neurons in the rat medial temporal lobe was also examined following chronic exposure to 5-HT6 antagonist. […] Horizontal cryosections were cut from the frozen tissue at various levels with reference to Bregma (see above), these were thaw-mounted onto glass slides, which were coated with poly-[…] diluted 1:1 in dH2O, and immersion fixed for 30 minutes with 70% ethanol. The sections were then washed twice for 10 minutes each in 0.1M phosphate buffered saline (PBS) and incubated for 20 hours in a humidified chamber at room temperature with the primary antibody diluted 1:500 in PBS containing 1% bovin serum albumin (w/v) and 1% normal goat serum (v/v) to reduce non-specific staining. The humidified chamber prevented the sections from evaporating. The primary antibody was a monoclonal raised against PSA, which was provided by Professor G, Rougon (CNRS UMR 6545, 13288 Marseille, France). On completion of the primary antibody incubation, the sections were washed twice for ten minutes each in PBS and incubated at room temperature for 3 hours in the humidified chamber with the secondary antibody, at a dilution factor of 1:100, again in PBS containing 1% BSA and 1% NGS. The secondary antibody was a goat anti-mouse IgM conjugated to fluorescein (FITC). Following the second incubation, the sections ware again washed twice for ten minutes each in PBS, mounted in the fluorescence enhancing medium Citifluor® and observed for fluorescence with a Leitz DM RB fluorescent microscope. Quantitative image analysis was performed using the Leica Quantimet 500®, a P.C.-based software package, which was connected to the fluorescence microscope with a high sensitivity CCD video camera. Each microscope lens was calibrated for length and area measurements using a 1 mm graticule. […] Cell identification was aided by the use of the nuclear counter-stain propidium iodide (40 ng/ml PBS; 60 sec). […] This was done for each section and a mean±SEM was calculated for each brain with the results expressed as PSA-positive cells per unit area. […] Cell identification was again aided by the use of the nuclear counter-stain propidium iodide (40 ng/ml PBS; 60 sec) with the use of alternate sections eliminating the possibility of double counting. Cell counts were divided by the length of the cortex and multiplied by the average length of the cortex, which was taken to be 10 mm. This was completed for each section and a mean±SEM was calculated for each brain with the results expressed as PSA-positive cells per unit length. […] NCAM PSA-positive cell numbers were obtained from each animal group. Results were expressed as mean±SEM with at least 3-6 values per group and analysed by ANOVA or unpaired non-parametric, Student's t-test, as indicated. […] Drug administration ceased 24 h prior to animal sacrifice. Animal weight gain and general physical condition was monitored daily. Methylcellulose (1% w/v) treated controls and use of the antipyschotic clozapine were employed for comparison."}, "[3]": {"system": "BrdU-immunopositive cells in the hippocampal dentate granule cell layer", "test": "BrdU expression in hippocampal dentate granule cell layer (neurogenesis)", "assay_type": "in vivo, rat", "experimental": "Experimentally naïve postnatal day 80 (at the time of NCAM-PSA assessment) male Wistar rats were employed in all studies. All animals were housed singly and maintained at 22±2° C. on a standard 12 h-light/dark cycle with food and water available ad libitum. Animals were introduced to the experimental holding rooms at least 3 days prior to the commencement of any study."}},
  "data": [
    {"compound": "COc1ccc(NS(=O)(=O)c2sc3ccc(Cl)cc3c2C)cc1N1CCNCC1.Cl", "note": "[SB271046, 5-Chloro-3-methylbenzo[b]thiophene-2-sulfonic acid (4-methoxy-3-piperazin-1-ylphenyl)amide hydrochloride]", "values": [
      {"measurement": "seizure threshold", "setting": "seizure threshold", "value": "increases seizure threshold"},
      {"measurement": "pKi", "setting": "rat 5-HT6 receptors", "value": 9.0},
      {"measurement": "oral bioavailability", "setting": "[1]", "value": "orally bioavailable"},
      {"measurement": "effect on frequency of polysialylated neurons in the rat medial temporal lobe", "setting": "[2]; chronic exposure", "value": "increased"},
      {"measurement": "PSA immunopositive cell frequency", "setting": "[2]; Bregma level -7.1 mm", "value": "61.7 ± 1.7 PSA-positive cells per unit length"},
      {"measurement": "PSA immunopositive cell frequency", "setting": "[2]; Bregma level -7.6 mm", "value": "69.9 ± 0.9 PSA-positive cells per unit length"},
      {"measurement": "PSA immunopositive cell frequency", "setting": "[2]; Bregma level -8.1 mm", "value": "125.4 ± 3.5 PSA-positive cells per unit length"},
      {"measurement": "PSA immunopositive cell frequency", "setting": "[2]; Bregma level -8.6 mm", "value": "178.3 ± 12.2 PSA-positive cells per unit length"},
      {"measurement": "BrdU-immunopositive cell number/granule cell layer", "setting": "[3]; 20 mg/kg, 40 days by gavage, BrdU 100 mg/kg i.p. last eight days", "value": "2332 ± 136.5"},
      {"measurement": "effect on expression of BrdU-immunopositive cells / neurogenic rate", "setting": "[3]; chronic 20 mg/kg, versus vehicle-treated controls", "value": "without altering neurogenic rate"}
    ]}
  ]
}
